What all share (format): functional
For test [1], the system named is Staphylococcus aureus. The test is described as follows: Antibacterial activity against methicillin-resistant Staphylococcus aureus after 18 hrs by conventional 2 fold serial dilution method.
In test [2] the test system is Staphylococcus aureus. Nature of the test: Antibacterial activity against multidrug-resistant Staphylococcus aureus after 18 hrs by conventional 2 fold serial dilution method.
The test system of test [3] is Staphylococcus aureus. The test is described as follows: Antibacterial activity against Staphylococcus aureus after 18 hrs by conventional 2 fold serial dilution method.

By MIC is commonly meant the lowest concentration that inhibits growth of the organism. Read a low MIC as greater potency.

Each structure is given as a SMILES string. In brackets after ≈: the same amount, converted by molar mass.

Regarding `C[C@H](O)[C@H](Cl)C1=C[C@H](O)[C@@H](C)OC1=O` [CHLOROHYDROASPYRONE A], the MIC was 125 µg/mL (≈ 567 µM) in the test on Staphylococcus aureus [1], 125 µg/mL (≈ 567 µM) in the test with Staphylococcus aureus [2] and 62.5 µg/mL (≈ 283 µM) in the test with Staphylococcus aureus [3].
`C[C@H](Cl)[C@@H](O)C1=C[C@H](O)[C@@H](C)OC1=O` [CHLOROHYDROASPYRONE B]: the MIC in the test with Staphylococcus aureus [1] came to 62.5 µg/mL (≈ 283 µM); against Staphylococcus aureus [2], 125 µg/mL (≈ 567 µM); against Staphylococcus aureus [3], 62.5 µg/mL (≈ 283 µM).

Source of the values: ChEMBL document CHEMBL1156551, “Chlorohydroaspyrones A and B, antibacterial aspyrone derivatives from the marine-derived fungus Exophiala sp” (2008).
